The source of these data is US5081023A, “Antibiotic L53-18A and process for preparation thereof” (Toyo Yozo Company, Ltd., priority 1989, dated 1992).

Series [1] has as its system Staphylococcus aureus FDA 209P JC-1. In words: Antimicrobial activity (MIC), Table 1. Type of series: cell-based. The note with it: FDA209P, read-out: Minimum growth inhibitory concentration.
In series [2] the test system is Staphylococcus epidermidis ATCC 27626. In words: Antimicrobial activity (MIC), Table 1. The series is classed as cell-based. The note with it: ATCC27626, read-out: Minimum growth inhibitory concentration.
Series [3] deals with Streptococcus pyogenes N.Y.5. Put plainly: Antimicrobial activity (MIC), Table 1. The series is classed as cell-based. The note with it: read-out: Minimum growth inhibitory concentration.
Series [4] concerns Streptococcus agalactiae 1020. Put plainly: Antimicrobial activity (MIC), Table 1. The series is classed as cell-based. The note with it: read-out: Minimum growth inhibitory concentration.
The subject of series [5] is Sarcina lutea ATCC 9341. In words: Antimicrobial activity (MIC), Table 1. Type of series: cell-based. The note with it: Micrococcus luteus, ATCC9341, read-out: Minimum growth inhibitory concentration.
Series [6] relates to Bacillus subtilis ATCC 6633. Put plainly: Antimicrobial activity (MIC), Table 1. Type of series: cell-based. The note with it: ATCC6633, read-out: Minimum growth inhibitory concentration.
The test system of series [7] is Escherichia coli NIHJ JC-2. In words: Antimicrobial activity (MIC), Table 1. The note with it: NIHJJC2, read-out: Minimum growth inhibitory concentration. The series is classed as cell-based.
Series [8] has as its system Klebsiella pneumoniae NCTC 9632. In words: Antimicrobial activity (MIC), Table 1. Type of series: cell-based. The note with it: NCTC9632, read-out: Minimum growth inhibitory concentration.
Series [9] relates to Pseudomonas aeruginosa IAM 1095. Put plainly: Antimicrobial activity (MIC), Table 1. The series is classed as cell-based. The note with it: IAM1095, read-out: Minimum growth inhibitory concentration.
Series [10] relates to mice. Put plainly: Acute toxicity. The series is classed as in vivo. The note with it: ip, 10 per group, mice surviving at this dose. The method, then:
(16) Acute toxicity: 300 mg/kg (ip) with surviving mice (10 mice per one group).

Series [11] can be described thus: Solubility. The series is classed as physicochemical.
Series [12] in a line: Distinction of acidic or basic. Type of series: physicochemical.
The test system of series [13] is Gram-positive bacteria. In words: Antibacterial activity. The series is classed as cell-based.
Series [14] deals with Saccharopolyspora sp. L53-18. In words: Resistance to antibiotic (MIC), Table 3. The series is classed as cell-based. The text has this:
[according to J. Antibiot. 32: 180-186 (1976)]

Series [15] deals with Saccharopolyspora sp. L53-18. Put plainly: Resistance to lysozyme. The series is classed as cell-based. The note with it: producing strain L53-18. The text has this: (8) Resistance to lysozyme: sensitive [Inter. J. System. Bacteriol. 27: 176-178 (1977)]
Setting [16] is: resistance of producing strain L53-18 to antibiotics, read-out: MIC.
Setting [17] is: resistance of producing strain L53-18 to antibiotics.

Values after ≈ are worked out from the molar mass of the structure shown. Where two headings read alike, the source gives them in different places.

On to `CC[C@H]1OC(=O)[C@H](C)[C@@H](O[C@H]2C[C@@](C)(OC)[C@@H](O)[C@H](C)O2)[C@H](C)[C@@H](O[C@@H]2O[C@H](C)C[C@H](N(C)C)[C@H]2O)[C@](C)(O)C[C@@H](C)C2=C(C)C(=O)[C@]1(C)O2` [Antibiotic L53-18A], for which the MIC was 0.2 µg/mL (≈ 0.28 µM) in series [1]; 0.2 µg/mL (≈ 0.28 µM) in series [2]; < 0.05 µg/mL in [3]; < 0.05 µg/mL in [4]; < 0.05 µg/mL in series [5]; < 0.05 µg/mL in [6]. Further, the MIC in [7], in series [8] and in [9] was > 100 µg/mL in each case. For the same molecule, the “Acute toxicity (dose with surviving mice)” value in series [10] was found to be 300 mg/kg. Besides, the Solubility result in series [11] is “Soluble in methanol, ethanol, acetone, ethyl acetate, chloroform, benzene and acidic water”. Moreover, in series [12], the “Distinction of acidic or basic” value is “basic”. Also, in series [13], the “antibacterial activity to Gram-positive bacteria” value is “shows antibacterial activity to Gram-positive bacteria”.
The molecule `NC[C@H]1O[C@H](O[C@H]2[C@H](O)[C@@H](O[C@H]3O[C@H](CO)[C@@H](O)[C@H](N)[C@H]3O)[C@H](N)C[C@@H]2N)[C@H](O)[C@@H](O)[C@@H]1O` [Kanamycin] gave an MIC in series [14] of 63 µg/mL (≈ 130 µM).
As for `CCCC(=O)O[C@H]1[C@H](C)O[C@@H](O[C@H]2[C@H](N(C)C)[C@@H](O)[C@H](O[C@H]3[C@@H](CC=O)C[C@@H](C)[C@@H](O)/C=C/C=C/C[C@@H](C)OC(=O)C[C@@H](O)[C@@H]3OC)O[C@@H]2C)C[C@@]1(C)O` [Leucomycin A5], the MIC in series [14] (setting [16]) is > 1000 µg/mL.
On the same count and under the same terms, the result for `NC[C@@H]1O[C@H](O[C@H]2[C@@H](O)[C@H](O[C@@H]3[C@@H](O)[C@H](N)C[C@H](N)[C@H]3O[C@H]3O[C@H](CO)[C@@H](O)[C@H](O)[C@H]3N)O[C@@H]2CO)[C@H](N)[C@@H](O)[C@@H]1O` [Paromomycin] reads 31 µg/mL (≈ 50.4 µM); that for `CO[C@H]1/C=C/O[C@@]2(C)Oc3c(C)c(O)c4c(O)c(c(/C=N/N5CCN(C)CC5)c(O)c4c3C2=O)NC(=O)/C(C)=C\C=C\[C@H](C)[C@H](O)[C@@H](C)[C@@H](O)[C@@H](C)[C@H](OC(C)=O)[C@@H]1C` [Rifampicin], < 16 µg/mL; that for `CN[C@@H]1[C@H](O)[C@H](NC)[C@H]2O[C@@]3(O)C(=O)C[C@@H](C)O[C@H]3O[C@@H]2[C@H]1O` [Spectinomycin], > 1000 µg/mL.
The same measure, in the same setting: the result for `[H]/N=C(/N)N[C@H]1[C@H](O)[C@@H](O)[C@H](O[C@@H]2O[C@@H](C)[C@](O)(C=O)[C@H]2O[C@@H]2O[C@@H](CO)[C@H](O)[C@@H](O)[C@@H]2NC)[C@@H](N/C(N)=N\[H])[C@@H]1O` [Streptomycin] reads 31 µg/mL (≈ 53.3 µM).
Gentamicin showed an MIC in series [14] (setting [17]) of 16 µg/mL.
Still for that read-out and setting: under Neomycin stands 63 µg/mL.
Regarding lysozyme, in [15], the Resistance to lysozyme entry is recorded as “sensitive”.
